Each block holds one compound with its values, some of them ahead of it. Calls of active or inactive are those of the source. No cut-off for these calls is given here. Non-standard residues stand in square brackets, D forms with d. Residues, ends and D or L forms follow the SMILES beside them. ξ: configuration not given here. *: point of attachment. Myristoyl = CCCCCCCCCCCCCC(=O)*; Dap = NC[C@H](N)C(=O)O; ξDap = NCC(N)C(=O)O; GABA = NCCCC(=O)O
Legend:
Liposome [1] = test: Inhibition of fertilization by POPC (40 or 400 nm), measured by average number of sperm fused / egg (FI); No inhibition uM; format: functional, Mus musculus
Liposome [2] = test: Inhibition of fertilization by POPC (40 or 400 nm), measured by number of zona-free eggs fertilized (FR); No inhibition uM; format: functional, subcellular, Mus musculus
Liposome [3] = test: Inhibition of fertilization by POPC (40 or 400 nm), measured by number of zona-free eggs fertilized (FR); No inhibition; format: functional, subcellular, Mus musculus
Liposome [4] = test: Maximal inhibition of fertilization by POPC (40 or 400 nm); No inhibition; format: functional; conditions: Mus musculus
Liposome [5] = test: Inhibition of fertilization by fertilin beta peptide, measured by average number of sperm fused / egg (FI); format: functional, Mus musculus
Liposome [6] = test: Maximal inhibition of fertilization by fertilin beta peptide; format: functional, subcellular; conditions: Mus musculus
Liposome [7] = test: Inhibition of fertilization by fertilin beta peptide, measured by number of zona-free eggs fertilized (FR); format: functional, subcellular, Mus musculus
Liposome [8] = test: Inhibition of fertilization by fertilin beta peptide (0.5 mol%) with 40 nm liposome, measured by number of zona-free eggs fertilized (FR); format: functional, subcellular, Mus musculus
Liposome [9] = test: Inhibition of fertilization by fertilin beta peptide (0.5 mol%) with 400 nm liposome, measured by average number of sperm fused per egg (FI); format: functional, subcellular, Mus musculus
Liposome [10] = test: Inhibition of fertilization by fertilin beta peptide (1 mol%) with 40 nm liposome, measured by average number of sperm fused per egg (FI); format: functional, subcellular, Mus musculus
Liposome [11] = test: Inhibition of fertilization by fertilin beta peptide (0.1 mol%) with 40 nm liposome, measured by number of zona-free eggs fertilized (FR); format: functional, subcellular, Mus musculus
Liposome [12] = test: Inhibition of fertilization by fertilin beta peptide (5 mol%) with 40 nm liposome, measured by number of zona-free eggs fertilized (FR); format: functional, subcellular, Mus musculus
Liposome [13] = test: Inhibition of fertilization by fertilin beta peptide (0.5 mol%) with 400 nm liposome, measured by number of zona-free eggs fertilized (FR); format: functional, subcellular, Mus musculus
Liposome [14] = test: Inhibition of fertilization by fertilin beta peptide (0.1 mol%) with 40 nm liposome, measured by average number of sperm fused per egg (FI); format: functional, subcellular, Mus musculus
Liposome [15] = test: Maximal inhibition of fertilization by fertilin beta peptide (1 mol%) with 40 nm liposome; format: functional, subcellular; conditions: Mus musculus
Liposome [16] = test: Inhibition of fertilization by fertilin beta peptide (0.013 mol%) with 40 nm liposome, measured by average number of sperm fused per egg (FI); No inhibition up to 125 nm peptide; format: functional, Mus musculus
Liposome [17] = test: Inhibition of fertilization by fertilin beta peptide (0.5 mol%) with 40 nm liposome, measured by average number of sperm fused per egg (FI); format: functional, subcellular, Mus musculus
Liposome [18] = test: Maximal inhibition of fertilization by fertilin beta peptide (0.5 mol%) with 40 nm liposome; format: functional, subcellular; conditions: Mus musculus
Liposome [19] = test: Inhibition of fertilization by fertilin beta peptide (0.013 mol%) with 40 nm liposome, measured by number of zona-free eggs fertilized (FR); No inhibition up to 125 nm peptide; format: functional, Mus musculus
Liposome [20] = test: Inhibition of fertilization by fertilin beta peptide (1 mol%) with 40 nm liposome, measured by number of zona-free eggs fertilized (FR); format: functional, subcellular, Mus musculus
Liposome [21] = test: Inhibition of fertilization by fertilin beta peptide (0.013 mol%) with 40 nm liposome, measured by number of zona-free eggs fertilized (FR); No inhibition; format: functional, subcellular, Mus musculus
Liposome [22] = test: Inhibition of fertilization by fertilin beta peptide (5 mol%) with 40 nm liposome, measured by average number of sperm fused per egg (FI); format: functional, subcellular, Mus musculus
Liposome [23] = test: Inhibition of fertilization by fertilin beta peptide (1 mol%) with 40 nm liposome, measured by average number of sperm fused /egg (FI); No inhibition uM peptide; format: functional, subcellular, Mus musculus
Liposome [24] = test: Inhibition of fertilization by fertilin beta peptide (1 mol%) with 40 nm liposome, measured by number of zona-free eggs fertilized (FR); No inhibition uM peptide; format: functional, subcellular, Mus musculus
Liposome [25] = test: Inhibition of fertilization by fertilin beta peptide (1 mol%) with 40 nm liposome, measured by number of zona-free eggs fertilized (FR); No inhibition; format: functional, subcellular, Mus musculus
Liposome [26] = test: Maximal inhibition of fertilization by fertilin beta peptide (1 mol%) with 40 nm liposome; No inhibition; format: functional, subcellular; conditions: Mus musculus

IC50 (Liposome [1]): Not Active
IC50 (Liposome [2]): Not Active
IC50 (Liposome [3]): Not Active
Structure (SMILES): CCCCCCCC/C=C\CCCCCCCC(=O)OC(COC(=O)CCCCCCCCCCCCCCC)COP(=O)([O-])OCC[N+](C)(C)C (stereo not given)
Max inhibition (Liposome [4]): inactive

IC50 (Liposome [5]): 524 µM
IC50 (Liposome [7]): 500 µM
Structure (SMILES): CC(=O)NC[C@H](NC(C)=O)C(=O)NCCCC(=O)N[C@@H](C)C(=O)N[C@@H](CCC(N)=O)C(=O)N[C@@H](CC(=O)O)C(=O)N[C@@H](CCC(=O)O)C(=O)N[C@@H](CS)C(=O)N[C@@H](CC(=O)O)C(=O)N[C@H](C(=O)N[C@H](C(=O)N[C@@H](CCC(=O)O)C(=O)N[C@@H](Cc1ccc(O)cc1)C(N)=O)[C@@H](C)O)C(C)C (Ac-[Dap](Ac)[GABA]AQDECDVTEY-NH2)
Max inhibition (Liposome [6]): 71%

IC50 (Liposome [8]): 2800000000000 liposomes ml-1
IC50 (Liposome [8]; read-out: IC50): 0.34 µM
IC50 (Liposome [9]): 0.92 µM
IC50 (Liposome [10]): 2.4 µM
IC50 (Liposome [11]): 0.5 µM
IC50 (Liposome [12]): 4200000000000 liposomes ml-1
IC50 (Liposome [12]; read-out: IC50): 5 µM
IC50 (Liposome [13]): 59000000000 liposomes ml-1
IC50 (Liposome [13]; read-out: IC50): 0.75 µM
IC50 (Liposome [14]): 0.5 µM
IC50 (Liposome [16]): Not Active
IC50 (Liposome [17]): 0.5 µM
IC50 (Liposome [19]): Not Active
IC50 (Liposome [20]): 11000000000000 liposomes ml-1
IC50 (Liposome [20]; read-out: IC50): 2.5 µM
IC50 (Liposome [21]): Not Active
IC50 (Liposome [22]): 5 µM
Structure (SMILES): CCCCCCCCCCCCCC(=O)NCC(NC(=O)CCCCCCCCCCCCC)C(=O)NCCCC(=O)N[C@@H](C)C(=O)N[C@@H](CCC(N)=O)C(=O)N[C@@H](CC(=O)O)C(=O)N[C@@H](CCC(=O)O)C(=O)N[C@@H](CS)C(=O)N[C@@H](CC(=O)O)C(=O)N[C@H](C(=O)N[C@H](C(=O)N[C@@H](CCC(=O)O)C(=O)N[C@@H](Cc1ccc(O)cc1)C(N)=O)[C@@H](C)O)C(C)C (stereo not given in full) (Myristoyl-[ξDap](Myristoyl)[GABA]AQDECDVTEY-NH2)
Max inhibition (Liposome [15]): 97%
Max inhibition (Liposome [18]): 93%

IC50 (Liposome [23]): Not Active
IC50 (Liposome [24]): Not Active
IC50 (Liposome [25]): Not Active
Structure (SMILES): CCCCCCCCCCCCCC(=O)NCC(NC(=O)CCCCCCCCCCCCC)C(=O)NCCCC(=O)N[C@@H](CC(=O)O)C(=O)N[C@@H](Cc1ccc(O)cc1)C(=O)N[C@@H](CCC(=O)O)C(=O)N[C@H](C(=O)N[C@@H](CCC(=O)O)C(=O)N[C@@H](CCC(N)=O)C(=O)N[C@@H](C)C(=O)N[C@@H](CS)C(=O)N[C@H](C(=O)N[C@@H](CC(N)=O)C(=O)O)[C@@H](C)O)C(C)C (stereo not given in full) (Myristoyl-[ξDap](Myristoyl)[GABA]DYEVEQACTN-OH)
Max inhibition (Liposome [26]): inactive
